In patent US20100203507A1 (PROMETHEUS LABORATORIES, INC, priority 2005, published 2010):
Several values for one entry are separate records, joined by “and”; a condition that tells them apart may be missing. Identical values can stand only once.

Columns and labels:
[1] = test system: patients with rheumatoid arthritis; assay: Cross-sectional study: occurrence of side-effects under low dose MTX therapy (Example 1); assay type: in vivo, human
Experimental: (§1) Study design: The study was cross-sectional at two investigational California sites (Cedars Sinai, Department of Rheumatology; and UCLA, Department of Rheumatology). […] Concomitant disease-modifying arthritis agents (e.g., sulphasalazine, hydroxychloroquine, leflunomide), low-dose corticosteroids (<10 mg day), and folic acid supplementation were allowed. […] Patient demographics were collected at the time of enrollment in the study. At a single study visit, EDTA blood was drawn and shipped overnight to Prometheus Laboratories in San Diego, Calif.
(§2) Clinical status assessment: Patient clinical and demographic characteristics were collected at the single study visit. Clinical efficacy was assessed using the disease activity score (DAS28), which includes the number of tender and swollen joint counts (n=28), the erythrocyte sedimentation rate, and the patient's global assessment of disease activity.
Statistical analysis: The analysis consisted of multivariate logistic regression with the occurrence of side-effects as the dependent variable.

[2] = test system: adult rheumatoid arthritis patients naive to MTX; assay: Prospective longitudinal MTX dose escalation study: occurrence of side-effects (Example 2)
Experimental: The clinical assessment at each study visit consisted of a tender and swollen joint count, a patient's assessment of disease activity (10 cm-VAS), a physician's assessment of disease activity (10 cm-VAS), and a C-Reactive protein (CRP) determination.
The occurrence of side-effects was recorded at the time of each study visit. […] Leukocyte count, hemoglobin, and liver AST were measured on the day of the study visit using standard laboratory methods. […] All data were captured on Case Report Forms using a standardized questionnaire. This consisted of the presence of nausea, dyspepsia, diarrhea, headache, lethargy, stomatitis, alopecia, and pulmonary toxicity (e.g., cough, dyspnea, pulmonary infiltrates). Patients were evaluated by the same physician at the time of each study visit. Toxicities were graded as “mild,” “moderate,” and “severe.” EDTA whole blood was drawn from each patient and shipped overnight from Albany, N.Y. to Prometheus Laboratories in San Diego, Calif.
Toxicities were analyzed using the percentage of 4-6 week periods with side-effects per patient. […] Statistical analyses were performed using the software package SAS (Release 8.2; SAS Institute Inc.; Cary, N.C.).

[3] = test system: RBC folate polyglutamates; assay: RBC folate polyglutamate levels by radio-assay (Example 2); assay type: in vivo, human; conditions: for RBC folate PG decrease versus baseline / RBC folate PG levels: fourth visit
Experimental: Laboratory measurements: Red blood cell (RBC) long-chain MTXPG concentrations (MTXPG3; nmol/L RBC) were measured using a post-column photo-oxidation HPLC-fluorometry technique as described in, e.g., Dervieux et al., Clin. Chem., 49:1632-1641 (2003). RBC folate polyglutamates (Folate PGs; expressed as nmol/L RBCs) were measured using a radio-assay (Biorad; Hercules, Calif.). The MTHFR C677T polymorphism can be measured with a real-time TaqMan allelic discrimination assay as described above. The MS A2756G polymorphism, which results in an aspartic acid to glycine substitution at codon 919 of MS, can be measured with a real-time TaqMan allelic discrimination assay using the following primers and fluorogenic 3′-minor groove binding probes: forward primer: 5′-GAATACTTTGAGGAAATCATGGAAGA-3′ (SEQ ID NO:17); reverse primer: 5′-TCTGTTTCTACCACTTACCTTGAGAGACT-3′ (SEQ ID NO:18); wild-type fluorescent probe: 5′-FAM-AGA CAG GAC CAT TAT G-MGB-3′ (SEQ ID NO:19); and mutant fluorescent probe: 5′-VIC-ACA GGG CCA TTA TG-MGB-3′ (SEQ ID NO:20).

[4] = test system: adult rheumatoid arthritis patients naive to MTX; assay: Prospective longitudinal MTX dose escalation study: response (DAS28, EULAR criteria, physician's assessment VAS) (Example 2)
[5] = test system: patients with rheumatoid arthritis; assay: Cross-sectional study: clinical efficacy by disease activity score DAS28 (Example 1); assay type: in vivo, human
Experimental: as §1, §2

[6] = 97 patients, single study visit
[7] = MS 2756A/A vs. MS2756 A/G or G/G
[8] = MTHFR 1298A/C or C/C vs. MTHFR 1298A/A
[9] = MTRR 66G/G vs. MTRR 66A/A or A/G
[10] = visit 4, generalized linear model
[11] = visit 6, generalized linear model

CN(Cc1cnc2nc(N)nc(N)c2n1)c1ccc(C(=O)N[C@@H](CCC(=O)O)C(=O)O)cc1 [MTX, methotrexate]
Patients with high disease activity and side-effects, number ([1]; 97 patients): 18
Overall side-effects, number of patients ([1]; 97 patients on MTX at least one month, single study visit): 40
AST >40 U/L, % of patients [1, 6]: (6.1%)
AST >40 U/L, number of patients [1, 6]: 6
Alopecia, % of patients [1, 6]: (17.5%)
Alopecia, number of patients [1, 6]: 17
Central nervous system side-effects, % of patients [1, 6]: (11.3%)
Central nervous system side-effects, number of patients [1, 6]: 11
Diarrhea, % of patients [1, 6]: (6.2%)
Diarrhea, number of patients [1, 6]: 6
Dyspepsia, % of patients [1, 6]: (7.2%)
Dyspepsia, number of patients [1, 6]: 7
Elevation of AST twice the upper normal value, pulmonary toxicity, or hematopoietic toxicity [1, 6]: None of the patients
Gastrointestinal tract side-effects, % of patients [1, 6]: (24.7%)
Gastrointestinal tract side-effects, number of patients [1, 6]: 24
Headache, % of patients [1, 6]: (5.1%)
Headache, number of patients [1, 6]: 8
Lethargy, % of patients [1, 6]: (8.2%)
Lethargy, number of patients [1, 6]: 8
Nausea, % of patients [1, 6]: (9.2%)
Nausea, number of patients [1, 6]: 9
Severity of side-effects [1, 6]: mild and did not require MTX withdrawal
Stomatatis, % of patients [1, 6]: (3.1%)
Stomatatis, number of patients [1, 6]: 3
Patients with high disease activity also experiencing a side-effect ([1]; of patients with high disease activity, at the time of the visit): 39%
Occurrence of central nervous system side-effects ([1]; patients with MTHFR 677C/T or 677C/C genotype): 9.0%
Occurrence of central nervous system side-effects ([1]; patients with MTHFR 677T/T genotype): 62.5%
Patients presenting with a side-effect ([1]; toxicogenetic index of 0): 17%
Patients who experienced a severe side-effect in one of the study visits, number ([2]; 2 severe lethargy, 2 severe dyspepsia): 4
Signs of hematological toxicity ([2]; 48 patients): None of the patients
AST >40 U/L: median of percentage of study visits with side-effect per patient ([2]; 48 patients, 4 to 6 visits): 0%
All side-effects: median of percentage of study visits with side-effect per patient ([2]; 48 patients, 4 to 6 visits): 50%
Alopecia: median of percentage of study visits with side-effect per patient ([2]; 48 patients, 4 to 6 visits): 0%
Alopecia: number of patients (% total) with at least one study visit with side-effect ([2]; 48 patients, 4 to 6 visits): 4 (8%)
Central nervous system: median of percentage of study visits with side-effect per patient ([2]; 48 patients, 4 to 6 visits): 25%
Central nervous system: number of patients (% total) with at least one study visit with side-effect ([2]; 48 patients, 4 to 6 visits): 30 (63%)
Cough: median of percentage of study visits with side-effect per patient ([2]; 48 patients, 4 to 6 visits): 0%
Cough: number of patients (% total) with at least one study visit with side-effect ([2]; 48 patients, 4 to 6 visits): 12 (25%)
Dyspnea: median of percentage of study visits with side-effect per patient ([2]; 48 patients, 4 to 6 visits): 0%
Dyspnea: number of patients (% total) with at least one study visit with side-effect ([2]; 48 patients, 4 to 6 visits): 1 (2.1%)
Gastrointestinal tract: median of percentage of study visits with side-effect per patient ([2]; 48 patients, 4 to 6 visits): 25%
Gastrointestinal tract: number of patients (% total) with at least one study visit with side-effect ([2]; 48 patients, 4 to 6 visits): 33 (69%)
Headache: median of percentage of study visits with side-effect per patient ([2]; 48 patients, 4 to 6 visits): 0%
Headache: number of patients (% total) with at least one study visit with side-effect ([2]; 48 patients, 4 to 6 visits): 14 (29%)
Lethargy: median of percentage of study visits with side-effect per patient ([2]; 48 patients, 4 to 6 visits): 17%
Lethargy: number of patients (% total) with at least one study visit with side-effect ([2]; 48 patients, 4 to 6 visits): 27 (56%)
diarrhea: median of percentage of study visits with side-effect per patient ([2]; 48 patients, 4 to 6 visits): 0%
diarrhea: number of patients (% total) with at least one study visit with side-effect ([2]; 48 patients, 4 to 6 visits): 15 (31%)
dyspepsia: median of percentage of study visits with side-effect per patient ([2]; 48 patients, 4 to 6 visits): 0%
dyspepsia: number of patients (% total) with at least one study visit with side-effect ([2]; 48 patients, 4 to 6 visits): 16 (33%)
nausea: median of percentage of study visits with side-effect per patient ([2]; 48 patients, 4 to 6 visits): 0%
nausea: number of patients (% total) with at least one study visit with side-effect ([2]; 48 patients, 4 to 6 visits): 22 (46%)
stomatitis: median of percentage of study visits with side-effect per patient ([2]; 48 patients, 4 to 6 visits): 0%
stomatitis: number of patients (% total) with at least one study visit with side-effect ([2]; 48 patients, 4 to 6 visits): 5 (10%)
Estimate, percentage of 4 week periods with all side-effects [2, 7]: 0.20 ± 0.09
Estimate, percentage of 4 week periods with central nervous system side-effects [2, 7]: 0.11 ± 0.09
Estimate, percentage of 4 week periods with gastrointestinal side-effects [2, 7]: 0.29 ± 0.08
Estimate, percentage of 4 week periods with all side-effects [2, 8]: 0.18 ± 0.10
Estimate, percentage of 4 week periods with central nervous system side-effects [2, 8]: 0.21 ± 0.10
Estimate, percentage of 4 week periods with gastrointestinal side-effects [2, 8]: 0.25 ± 0.09
Estimate, percentage of 4 week periods with all side-effects [2, 9]: 0.22 ± 0.10
Estimate, percentage of 4 week periods with central nervous system side-effects [2, 9]: 0.16 ± 0.09
Estimate, percentage of 4 week periods with gastrointestinal side-effects [2, 9]: 0.28 ± 0.09
Increase in MCV above 120 fl ([2]; baseline to visit 4): none of the patients
Patients requiring MTX dosage interruption, number ([2]; both at the fourth visit): Two
Estimate, MTX dose administered vs occurrence of central nervous system side-effects ([2]; generalized linear model): 0.186
Median increase in MCV from baseline ([2]; visit 4): 3.5%
Erythrocyte mean corpuscular volume (MCV), median ([2]; visit 4 (baseline 89 fl)): 93 fL
MCV of the only one patient above 120 fl ([2]; visit 6): 124 fL
Median increase in MCV ([2]; visit 6): 3.7%
Estimate, percentage change in DAS28 vs percentage change in folate PG levels ([3]; baseline to visit 4): 0.32±0.10
Estimate, percentage change in physician's assessment VAS vs percentage change in folate PG levels ([3]; baseline to visit 4): 0.71±0.22
Estimate, MTX dose vs decrease in RBC folate PGs ([3]; baseline to visit 6): 0.0324±0.014
Estimate, MTXPG levels vs decrease in RBC folate PGs ([3]; baseline to visit 6): −0.009±0.003
Decrease in folate levels ([3]; dose 7.5 to 15 mg/week with MTXPG increase of 40 nmol/L RBCs at visit 6, from model equation): 11.7%
Median RBC folate PG levels ([3]; fourth study visit, n=43 (initial 1222)): 1065 nmol/L RBCs
RBC folate PG decrease versus baseline ([3]; efficacy index above 1): 14%
RBC folate PG levels ([3]; efficacy index above 1): 1257 ± 70 nmol/L
RBC folate PG decrease versus baseline ([3]; efficacy index of 0): 36%
RBC folate PG levels ([3]; efficacy index of 0): 886 ± 59 nmol/L
RBC folate PG decrease versus baseline ([3]; efficacy index of 1): 42%
RBC folate PG levels ([3]; efficacy index of 1): 1168 ± 70 nmol/L
Median RBC folate PG levels ([3]; sixth visit): 994 nmol/L RBCs
Likelihood of response to MTX, decrease in RBC folate PGs vs no change or increase ([3]; visit 4): 8 fold and 7.7 fold
Estimate, lower decrease in physician's assessment in disease activity ([4]; MTHFR 677T/T genotype): 0.367
OR, lower likelihood of response to therapy ([4]; MTHFR 677T/T genotype, visit 4): 9.9
OR, therapeutic response at about 6 months when MTXPG3 greater than about 20 nmol/L RBCs at about 3 months ([4]; RBC MTXPG3): 8.0
Estimate, lower decrease in physician's assessment in disease activity ([4]; TS *2/*2 genotype): 0.360
OR, lower likelihood of response to therapy ([4]; TS *2/*2 genotype, visit 4): 3.9
Decrease in physician's assessment of disease activity compared to baseline ([4]; dose escalation 7.5 to 15 mg/week with MTXPG increase of 40 nmol/L RBCs at visit 4, from model equation): 19.8%
Patients responding to therapy ([4]; visit 4): 77%
Patients responding to therapy, number ([4]; visit 4): 36
Patients with good response, number ([4]; visit 4): 15
Patients with moderate response, number ([4]; visit 4): 11
Patients with poor response (EULAR) ([4]; visit 4): 23%
DAS28, median ([4]; visit 4 (baseline 5.1)): 3.5
Physician's assessment of disease activity 10 cm VAS, median ([4]; visit 4 (baseline 5.6)): 2.6
Estimate, RBC MTXPG level vs percentage change from baseline in physician's assessment VAS [4, 10]: −0.013±0.004
Estimate, weekly MTX dose vs percentage change from baseline in physician's assessment VAS [4, 10]: 0.043±0.017
Estimate, RBC MTXPG formation in responders vs non-responders ([4]; visit 4, generalized linear model, FIG. 3A): 0.034±0.020
Patients with poor response (EULAR), number ([4]; visit 4, median dose 15 mg/week): 11
Median decrease (from baseline) in DAS28 ([4]; visit 4, n=47): 36%
Median decrease (from baseline) in physician's assessment of disease activity VAS ([4]; visit 4, n=48): 47%
Estimate, MTX dose vs percentage change from baseline in DAS28 ([4]; visit 6): 0.011±0.051
Estimate, formation of RBC MTXPGs vs percentage change from baseline in DAS28 ([4]; visit 6): −0.003±0.001
Non-responders ([4]; visit 6): 9%
Responders with moderate response, number ([4]; visit 6): 10
Responders, number of patients ([4]; visit 6): 31
DAS28, median ([4]; visit 6 (baseline 5.1)): 3.1
Physician's assessment of disease activity 10 cm VAS, median ([4]; visit 6 (baseline 5.6)): 2.1
Estimate, RBC MTXPG levels vs percentage change from baseline in physician's assessment of disease activity [4, 11]: −0.0077±0.025
Estimate, weekly MTX dose vs percentage change from baseline in physician's assessment of disease activity [4, 11]: 0.029±0.012
Non-responders, number of patients ([4]; visit 6, median dose 17.5 mg weekly): three
Median decrease (from baseline) in DAS28 ([4]; visit 6, n=34): 41%
Median decrease (from baseline) in physician's assessment of disease activity VAS ([4]; visit 6, n=35): 52%
Responders with moderate response ([4]; visit 6, of the responders): 32%
Patients presenting with a high disease activity ([5]; 97 patients on MTX): 47%
Disease activity score (DAS28), median ([5]; 97 patients, median 30 months under methotrexate): 5.04
